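96-well plates; 48 h exposure; 5 concentrations. Endpoints by linear interpolation between flanking doses. Not reached: highest tested concentration assigned. GI50 marks 50% less growth. TGI is the concentration that stops growth completely.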
Assays:
Experiment in all cases: growth of human tumour cells (NCI), 48 h
NCI-H460 lung = system: NCI-H460 lung
CCRF-CEM leukemia = system: CCRF-CEM leukemia
SNB-75 CNS = system: SNB-75 CNS
SK-MEL-28 melanoma = system: SK-MEL-28 melanoma
T-47D breast = system: T-47D breast
MDA-MB-231 breast = system: MDA-MB-231 breast
MDA-MB-435 = system: MDA-MB-435
TK-10 renal = system: TK-10 renal
SF-539 CNS = system: SF-539 CNS
ACHN renal = system: ACHN renal
SK-MEL-5 melanoma = system: SK-MEL-5 melanoma
NCI-H226 lung = system: NCI-H226 lung
HCC-2998 colon = system: HCC-2998 colon
M14 melanoma = system: M14 melanoma
SF-268 CNS = system: SF-268 CNS
OVCAR-8 ovarian = system: OVCAR-8 ovarian
SR leukemia = system: SR leukemia
HT29 colon = system: HT29 colon
SK-MEL-2 melanoma = system: SK-MEL-2 melanoma
SN12C renal = system: SN12C renal
LOX IMVI melanoma = system: LOX IMVI melanoma
HCT-116 colon = system: HCT-116 colon
786-0 renal = system: 786-0 renal
OVCAR-3 ovarian = system: OVCAR-3 ovarian
CAKI-1 renal = system: CAKI-1 renal
MOLT-4 leukemia = system: MOLT-4 leukemia
KM12 colon = system: KM12 colon
UACC-62 melanoma = system: UACC-62 melanoma
NCI-H23 lung = system: NCI-H23 lung
SK-OV-3 ovarian = system: SK-OV-3 ovarian
UO-31 renal = system: UO-31 renal
UACC-257 melanoma = system: UACC-257 melanoma
COLO 205 colon = system: COLO 205 colon
OVCAR-4 ovarian = system: OVCAR-4 ovarian
MALME-3M melanoma = system: MALME-3M melanoma
SW-620 colon = system: SW-620 colon
SNB-19 CNS = system: SNB-19 CNS
NCI/ADR-RES ovarian = system: NCI/ADR-RES ovarian
OVCAR-5 ovarian = system: OVCAR-5 ovarian
HOP-92 NSCLC = system: HOP-92 NSCLC
PC-3 prostate = system: PC-3 prostate
IGROV1 ovarian = system: IGROV1 ovarian
HCT-15 colon = system: HCT-15 colon
DU-145 prostate = system: DU-145 prostate
A549 NSCLC = system: A549 NSCLC
U251 CNS = system: U251 CNS
BT-549 breast = system: BT-549 breast
RPMI-8226 leukemia = system: RPMI-8226 leukemia
SF-295 CNS = system: SF-295 CNS
EKVX NSCLC = system: EKVX NSCLC
HOP-62 NSCLC = system: HOP-62 NSCLC
MCF7 breast = system: MCF7 breast
NCI-H522 lung = system: NCI-H522 lung
RXF 393 renal = system: RXF 393 renal

Work on `O=C(COc1nc2ccccc2nc1-c1ccccc1)Nc1ccc(Cl)cc1` yielded a GI50 (NCI-H460 lung) of 9.79 µM, a TGI (NCI-H460 lung) of 77.8 µM and a GI50 (CCRF-CEM leukemia) of 17.3 µM. For the same molecule, the TGI (CCRF-CEM leukemia) was > 100 µM, the GI50 (SNB-75 CNS) was 27.7 µM and the TGI (SNB-75 CNS) was > 100 µM. For the same molecule, the GI50 (SK-MEL-28 melanoma) was 18.7 µM, the TGI (SK-MEL-28 melanoma) was > 100 µM and the GI50 (T-47D breast) was 37.5 µM. The TGI (T-47D breast) was > 100 µM, the GI50 (MDA-MB-231 breast) was 15.1 µM and the TGI (MDA-MB-231 breast) was 65 µM. For the same molecule, the GI50 (MDA-MB-435) was 18.4 µM, the TGI (MDA-MB-435) was > 100 µM and the GI50 (TK-10 renal) was 15.1 µM. For the same molecule, the TGI (TK-10 renal) was 76.8 µM, the GI50 (SF-539 CNS) was 14.5 µM and the TGI (SF-539 CNS) was 45.4 µM. The GI50 (ACHN renal) was 14.4 µM, the TGI (ACHN renal) was 37.9 µM and the GI50 (SK-MEL-5 melanoma) was 4.17 µM. For the same molecule, the TGI (SK-MEL-5 melanoma) was 19.7 µM, the GI50 (NCI-H226 lung) was 10.2 µM and the TGI (NCI-H226 lung) was 49.1 µM. For the same molecule, the GI50 (HCC-2998 colon) was 15.6 µM, the TGI (HCC-2998 colon) was > 100 µM and the GI50 (M14 melanoma) was 11.4 µM. The TGI (M14 melanoma) was 80.7 µM, the GI50 (SF-268 CNS) was 18.5 µM and the TGI (SF-268 CNS) was > 100 µM. For the same molecule, the GI50 (OVCAR-8 ovarian) was 11.3 µM, the TGI (OVCAR-8 ovarian) was > 100 µM and the GI50 (SR leukemia) was 6.54 µM. The TGI (SR leukemia) was > 100 µM, the GI50 (HT29 colon) was 11.4 µM and the TGI (HT29 colon) was > 100 µM. It also gave a GI50 (SK-MEL-2 melanoma) of 15.1 µM, a TGI (SK-MEL-2 melanoma) of 58 µM and a GI50 (SN12C renal) of 27.4 µM. The TGI (SN12C renal) was > 100 µM, the GI50 (LOX IMVI melanoma) was 15.7 µM and the TGI (LOX IMVI melanoma) was 49.2 µM. For the same molecule, the GI50 (HCT-116 colon) was 6.23 µM, the TGI (HCT-116 colon) was 27.8 µM and the GI50 (786-0 renal) was 14.3 µM. The TGI (786-0 renal) was 71.3 µM, the GI50 (OVCAR-3 ovarian) was 5.56 µM and the TGI (OVCAR-3 ovarian) was 36.9 µM. The GI50 (CAKI-1 renal) was 9.04 µM, the TGI (CAKI-1 renal) was > 100 µM and the GI50 (MOLT-4 leukemia) was 12.6 µM. For the same molecule, the TGI (MOLT-4 leukemia) was > 100 µM, the GI50 (KM12 colon) was 8.38 µM and the TGI (KM12 colon) was > 100 µM. For the same molecule, the GI50 (UACC-62 melanoma) was 12.9 µM, the TGI (UACC-62 melanoma) was 67.7 µM and the GI50 (NCI-H23 lung) was 24.9 µM. The TGI (NCI-H23 lung) was > 100 µM, the GI50 (SK-OV-3 ovarian) was 47.6 µM and the TGI (SK-OV-3 ovarian) was > 100 µM. The GI50 (UO-31 renal) was 17.1 µM, the TGI (UO-31 renal) was > 100 µM and the GI50 (UACC-257 melanoma) was 50.1 µM. The TGI (UACC-257 melanoma) was > 100 µM, the GI50 (COLO 205 colon) was 15.5 µM and the TGI (COLO 205 colon) was > 100 µM. For the same molecule, the GI50 (OVCAR-4 ovarian) was 27.7 µM, the TGI (OVCAR-4 ovarian) was > 100 µM and the GI50 (MALME-3M melanoma) was 20.9 µM. The TGI (MALME-3M melanoma) was 66.3 µM, the GI50 (SW-620 colon) was 25.7 µM and the TGI (SW-620 colon) was > 100 µM. It also gave a GI50 (SNB-19 CNS) of 21.6 µM, a TGI (SNB-19 CNS) of 89.1 µM and a GI50 (NCI/ADR-RES ovarian) of 4.46 µM. For the same molecule, the TGI (NCI/ADR-RES ovarian) was > 100 µM, the GI50 (OVCAR-5 ovarian) was 11 µM and the TGI (OVCAR-5 ovarian) was > 100 µM. The GI50 (HOP-92 NSCLC) was 8.77 µM, the TGI (HOP-92 NSCLC) was 36.7 µM and the GI50 (PC-3 prostate) was 9.99 µM. The TGI (PC-3 prostate) was > 100 µM, the GI50 (IGROV1 ovarian) was 14.3 µM and the TGI (IGROV1 ovarian) was 49.4 µM. The GI50 (HCT-15 colon) was 15.1 µM, the TGI (HCT-15 colon) was > 100 µM and the GI50 (DU-145 prostate) was 54.9 µM. For the same molecule, the TGI (DU-145 prostate) was > 100 µM, the GI50 (A549 NSCLC) was 27.8 µM and the TGI (A549 NSCLC) was > 100 µM. The GI50 (U251 CNS) was 13.2 µM, the TGI (U251 CNS) was 56.4 µM and the GI50 (BT-549 breast) was 33.6 µM. For the same molecule, the TGI (BT-549 breast) was > 100 µM, the GI50 (RPMI-8226 leukemia) was 23.1 µM and the TGI (RPMI-8226 leukemia) was > 100 µM. The GI50 (SF-295 CNS) was 5.09 µM, the TGI (SF-295 CNS) was 40.1 µM and the GI50 (EKVX NSCLC) was 26.9 µM. For the same molecule, the TGI (EKVX NSCLC) was > 100 µM, the GI50 (HOP-62 NSCLC) was 11.9 µM and the TGI (HOP-62 NSCLC) was 40.2 µM. The GI50 (MCF7 breast) was 36.8 µM, the TGI (MCF7 breast) was > 100 µM and the GI50 (NCI-H522 lung) was 3.5 µM. For the same molecule, the TGI (NCI-H522 lung) was 28.6 µM, the GI50 (RXF 393 renal) was 29.3 µM and the TGI (RXF 393 renal) was 80 µM.
